Assay results taken from paper PMC9699400 (Molecules, 2022).
Values joined by “and” are separate entries in the source; they are usually repeats but may differ in a detail not shown here. Identical values can stand only once. Counter-ions that a name gives are not always drawn. Like-named read-outs stand apart in the source and are kept apart here. Marks after values point to notes of the source that are not given here.

Assays:
PC12 cells [1] = details: 10 µM; ref 54 (Liu et al.); cited from earlier work
AChE [2] = molecular target: T1, AChE (Electrophorus electricus, UniProt O42275); assay: Fluorescence quenching of AChE; type: binding
T1 construct: purchased Sigma-Aldrich Co. (St. Louis, MO, USA)
Procedure: After each drop, the solution was mixed and left for 3 min to balance the solution. The fluorescence emission spectra at 290 to 450 nm were scanned at an excitation wavelength of 280 nm, with emission and excitation slot widths of 2.5 nm.

AChE [3] = molecular target: T1, AChE; assay: Inhibitory type kinetics analysis (reversibility plots, Lineweaver-Burk); type: biochemical
Procedure: The type of inhibition was determined using the Lineweaver-Burk plot in double reciprocal form.

PC12 cells [4] = assay: Quercetin-induced toxicity in PC12 cells (MTT); details: 1–80 µM, 24 h, n = 6
Procedure: (§1) PC12 cells were procured from Nanjing KeyGen Biotech Co. Ltd. (Nanjing, China). The cells were maintained in high-glucose DMEM containing 10% fetal bovine serum (FBS) and 1% P-S and incubated under 5% CO2 and 37 °C. PC12 cells in the logarithmic phase were seeded in 96-well (approximately 2 × 10^4/well) or 24-well (approximately 1 × 10^5/well) culture plates, incubated for 24 h, followed by the replacement of the medium.

[5] = system: Aβ25–35-induced PC12 cells; assay: MDA content in Aβ25–35-induced PC12 cells; type: cell-based; details: quercetin pretreatment (1–40 µM), 20 µM Aβ25–35 24 h; p < 0.01 relative to the model group
Procedure: (§2) Each group was provided with six duplicate wells based on different measurement indexes.
(§3) For cell culture and grouping sample addition, please refer to Section 2.9. After incubation, the culture plate was centrifuged at 200× g for 5 min using a plate centrifuge, and the supernatant was discarded. Next, the cells were collected and broken by ultrasound and centrifuged at 3000 r/min at 4 °C for l0 min, and the supernatant was collected for subsequent assays. The OD was recorded at 532 and 405 nm, respectively, following the instructions mentioned in the manual for the MDA and GSH kits. Intracellular MDA content and GSH levels are expressed as percentages of the control.

AChE [6] = molecular target: T1, AChE; assay: CD spectra, secondary structure of AChE
From the text: The MOS 450 CD spectrometer (Bio-Logic, Claix, France) was used to measure the CD spectra for AChE solution at 190 to 250 nm under ambient temperature. […] The method to analyze the content of specific secondary structures has been reported in our previous study.

AChE [7] = details: cited from earlier work
[8] = system: Aβ25–35-induced PC12 cells; assay: Aβ25–35-induced PC12 cell viability (MTT); details: then 20 µM Aβ25–35 24 h, model group 51.43 ± 2.61
Procedure: as §1, §2
PC12 cells were inoculated in 96-well plates for 24 h.

AChE [9] = molecular target: T1, AChE; assay: Time-course inactivation kinetics of AChE; type: biochemical; details: for Transition Free Energy Change ΔΔG°: ΔΔG° = −RTlnk
Procedure: We determined enzyme activities at diverse contents every 3 min for 0–30 min and every 5 min for 30–70 min.

[10] = system: Aβ25–35-induced PC12 cells; assay: GSH level in Aβ25–35-induced PC12 cells; type: cell-based
Procedure: as §2, §3

[11] = molar ratio quercetin:AChE 10:1

T1 sequence (O42275 24-633): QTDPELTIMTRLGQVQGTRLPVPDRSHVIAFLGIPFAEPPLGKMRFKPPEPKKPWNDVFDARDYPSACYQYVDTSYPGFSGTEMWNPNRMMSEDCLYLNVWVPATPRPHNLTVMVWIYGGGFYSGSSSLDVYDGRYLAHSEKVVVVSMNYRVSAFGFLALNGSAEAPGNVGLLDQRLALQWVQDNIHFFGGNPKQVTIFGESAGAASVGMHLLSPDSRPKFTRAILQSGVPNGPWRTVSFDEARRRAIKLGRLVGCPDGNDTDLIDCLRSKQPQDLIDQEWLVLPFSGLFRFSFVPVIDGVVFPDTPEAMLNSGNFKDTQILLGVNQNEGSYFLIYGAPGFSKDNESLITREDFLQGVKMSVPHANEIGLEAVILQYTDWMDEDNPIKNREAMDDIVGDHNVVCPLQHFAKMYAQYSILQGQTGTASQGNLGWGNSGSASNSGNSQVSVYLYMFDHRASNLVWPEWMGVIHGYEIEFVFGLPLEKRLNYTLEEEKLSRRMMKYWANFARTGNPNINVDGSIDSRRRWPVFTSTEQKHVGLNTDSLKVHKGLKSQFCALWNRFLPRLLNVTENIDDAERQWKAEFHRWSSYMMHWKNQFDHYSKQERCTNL

Compound: COc1ccc2c3c1O[C@H]1C[C@@H](O)C=C[C@@]31CCN(C)C2 [galantamine hydrobromide]
- protection of cells against Aβ25–35 neurotoxicity (PC12 cells [1]): significantly protected

Compound: O=c1c(O)c(-c2ccc(O)c(O)c2)oc2cc(O)cc(O)c12 [quercetin, 3,3′,4′,5,7-pentahydroxyflavone]
- bimolecular quenching rate constant Kq, magnitude order (AChE [2]; 25, 31 and 37 °C): ~10^12 L mol^−1 s^−1
- Gibbs free energy ∆G° (AChE [2]; 25 °C): -27.09 ± 0.03 kJ/mol
- binding site quantity n (AChE [2]; 25 °C): 0.75 ± 0.04
- quenching constant KSV (AChE [2]; 25 °C, pH 7.6): 6.21 ± 0.08 ^a ×10^4 L mol^−1
- Gibbs free energy ∆G° (AChE [2]; 31 °C): -26.37 ± 0.05 kJ/mol
- binding site quantity n (AChE [2]; 31 °C): 0.69 ± 0.01
- quenching constant KSV (AChE [2]; 31 °C): 4.81 ± 0.06 ^b ×10^4 L mol^−1
- Gibbs free energy ∆G° (AChE [2]; 37 °C): -25.64 ± 0.07 kJ/mol
- binding site quantity n (AChE [2]; 37 °C): 0.67 ± 0.03
- quenching constant KSV (AChE [2]; 37 °C): 3.33 ± 0.05 ^c ×10^4 L mol^−1
- enthalpy change ∆H° (AChE [2]; van't Hoff equation, 25–37 °C): -63.39 ± 0.07 kJ/mol
- entropy change ∆S° (AChE [2]; van't Hoff equation, 25–37 °C): -121.8 ± 0.06 J mol^−1 K^−1
- type of inhibition (AChE [3]; Lineweaver–Burk, c(AChE) = 0.57 nM, quercetin 0–12.0 µM): mixed inhibitory type
- reversibility of inhibition (AChE [3]; plots of v versus [AChE], c(ATCI) = 0.25 mM, quercetin 0–8.0 µM): reversible inhibitor
- αKi (binding to AChE–ATCI complex) (AChE [3]; secondary plot of Lineweaver–Burk y-intercepts): 19.53 ± 0.65 µM
- cytotoxicity (cell viability, MTT) (PC12 cells [4]): no toxic effect
- release of MDA [5]: inhibited
- β-Sheet of AChE (AChE [6]; molar ratio quercetin:AChE 2:1, free AChE 18.62 ± 0.06): 17.31 ± 0.09 ^b %
- β-Turn of AChE (AChE [6]; molar ratio quercetin:AChE 2:1, free AChE 19.18 ± 0.28): 20.15 ± 0.24 ^c %
- Random Coil of AChE (AChE [6]; molar ratio quercetin:AChE 2:1, free AChE 28.02 ± 0.65): 25.41 ± 0.34 ^b %
- α-Helix of AChE (AChE [6]; molar ratio quercetin:AChE 2:1, free AChE 34.35 ± 0.74): 37.13 ± 0.16 ^c %
- Random Coil of AChE (AChE [6]; molar ratio quercetin:AChE 6:1): 23.71± 0.28 ^c %
- β-Sheet of AChE (AChE [6]; molar ratio quercetin:AChE 6:1): 16.20 ± 0.17 ^c %
- β-Turn of AChE (AChE [6]; molar ratio quercetin:AChE 6:1): 21.62 ± 0.13 ^b %
- Random Coil of AChE (AChE [6]; [11]): 20.19% and 20.19 ± 0.37 ^d %
- α-Helix of AChE (AChE [6]; [11]): 41.51% and 41.51 ± 0.28 ^a %
- β-Sheet of AChE (AChE [6]; [11]): 15.16% and 15.16 ± 0.14 ^d %
- β-Turn of AChE (AChE [6]; [11]): 23.14% and 23.14 ± 0.32 ^a %
- cell viability, % of the control group ([8]; pretreatment 1 µM): 56.06 ± 3.82%
- cell viability, % of the control group ([8]; pretreatment 10 µM): 62.14 ± 2.79%
- cell viability, % of the control group ([8]; pretreatment 20 µM): 68.58 ± 2.12%
- cell viability, % of the control group ([8]; pretreatment 40 µM): 78.61 ± 3.26%
- cell viability, % of the control group ([8]; pretreatment 80 µM): 79.48 ± 4.32%
- Inactivation Rate Constant k (AChE [9]; quercetin 1.5 µM): 4.18 ± 0.06 ×10^−4 s^−1 and 4.18 ± 0.06 ^d ×10^−4 s^−1
- Inactivation Rate Constant k (AChE [9]; quercetin 3.0 µM): 5.73 ± 0.03 ^c ×10^−4 s^−1
- Inactivation Rate Constant k (AChE [9]; quercetin 6.0 µM): 6.04 ± 0.08 ^b ×10^−4 s^−1
- Inactivation Rate Constant k (AChE [9]; quercetin 15.0 µM): 6.41 ± 0.05 ×10^−4 s^−1 and 6.41 ± 0.05 ^a ×10^−4 s^−1
- GSH levels versus model group ([10]; 1 µM pretreatment, p > 0.05): no statistical difference
- intracellular GSH levels versus model group ([10]; 10, 20, and 40 µM pretreatment, dose-dependent): increased

Compound: C[C@@H]1O[C@@H](Oc2c(-c3ccc(O)c(O)c3)oc3cc(O)cc(O)c3c2=O)[C@H](O)[C@H](O)[C@H]1O [quercitrin, reference compound]
- IC50 (AChE [7]; no reference at the value itself): 94.5 µM

Compound: O=C1c2c(O)cc(O)cc2OC(c2ccc(O)c(O)c2)C1O (stereo not drawn) [taxifolin, reference compound]
- IC50 (AChE [7]): 54 ± 1.58 µM
